Experimental data: ChEMBL document CHEMBL2169758, “Evaluation of new scaffolds of myeloperoxidase inhibitors by rational design combined with high-throughput virtual screening” (J Med Chem, 2012)
Activity calls are given as the source filed them. No cut-off for these calls is given here.

Assays:
Myeloperoxidase [1] = molecular target: T1, Myeloperoxidase (Homo sapiens, UniProt P05164); assay: Inhibition of recombinant human myeloperoxidase
T1 sequence (P05164 whole entry): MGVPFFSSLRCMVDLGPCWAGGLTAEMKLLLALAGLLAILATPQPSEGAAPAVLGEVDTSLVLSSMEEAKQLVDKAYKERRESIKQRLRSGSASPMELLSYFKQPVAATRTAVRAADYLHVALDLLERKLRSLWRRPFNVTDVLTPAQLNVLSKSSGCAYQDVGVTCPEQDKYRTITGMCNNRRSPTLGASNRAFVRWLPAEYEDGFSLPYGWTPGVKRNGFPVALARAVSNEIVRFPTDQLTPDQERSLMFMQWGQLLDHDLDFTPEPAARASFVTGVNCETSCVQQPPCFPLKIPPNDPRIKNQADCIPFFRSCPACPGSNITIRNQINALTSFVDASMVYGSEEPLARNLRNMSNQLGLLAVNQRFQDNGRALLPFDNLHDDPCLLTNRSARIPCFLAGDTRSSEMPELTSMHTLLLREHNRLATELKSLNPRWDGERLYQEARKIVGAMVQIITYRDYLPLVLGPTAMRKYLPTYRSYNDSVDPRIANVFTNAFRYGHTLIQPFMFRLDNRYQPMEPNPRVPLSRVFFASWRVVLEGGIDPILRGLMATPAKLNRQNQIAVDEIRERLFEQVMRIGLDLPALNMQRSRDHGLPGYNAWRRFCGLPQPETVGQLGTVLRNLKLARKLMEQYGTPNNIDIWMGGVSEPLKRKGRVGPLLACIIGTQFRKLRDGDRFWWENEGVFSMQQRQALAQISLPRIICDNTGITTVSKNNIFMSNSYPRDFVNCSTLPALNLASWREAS

Myeloperoxidase [2] = molecular target: T1, Myeloperoxidase; assay: Inhibition of recombinant human myeloperoxidase assessed as taurine chloramine production after 5 mins by spectrophotometry in presence of H2O2; type: single protein
[3] = molecular target: T2, Myeloperoxidase (Homo sapiens) (UniProt P05164); assay: Inhibition of human recombinant myeloperoxidase-mediated Apo B-100 oxidation on LDL at 5 uM after 5 min by ELISA
T2 sequence (whole entry): T1 sequence (P05164 whole entry)

[4] = molecular target: T2, Myeloperoxidase (Homo sapiens); assay: Inhibition of human recombinant myeloperoxidase assessed as compound 1 formation by spectrophotometry in presence of H2O2
[5] = molecular target: T2, Myeloperoxidase (Homo sapiens); assay: Inhibition of human recombinant myeloperoxidase-mediated Apo B-100 oxidation on LDL at 1.25 uM after 5 min by ELISA
[6] = molecular target: T2, Myeloperoxidase (Homo sapiens); assay: Inhibition of human recombinant myeloperoxidase-mediated Apo B-100 oxidation on LDL at 50 uM after 5 min by ELISA
Myeloperoxidase [7] = molecular target: T1, Myeloperoxidase; assay: Inhibition of myeloperoxidase
Myeloperoxidase [8] = molecular target: T1, Myeloperoxidase; assay: Binding affinity to recombinant human myeloperoxidase
[9] = molecular target: T2, Myeloperoxidase (Homo sapiens); assay: Inhibition of human recombinant myeloperoxidase assessed as compound 2 formation by spectrophotometry in presence of H2O2
[10] = molecular target: T2, Myeloperoxidase (Homo sapiens); assay: Ratio of apparent rate constant of compound 1 formation to apparent rate constant of compound 2 formation for human recombinant myeloperoxidase

Row | Compound | IC50 (Myeloperoxidase [2]) | inhibition [3] | Rate constant for compound I formation [4] | inhibition [5] | inhibition [6] | further results
1 | NCCc1c[nH]c2ccc(F)cc12 | – | – | – | – | – | IC50 (Myeloperoxidase [1]): 0.79 µM
2 | NC1=Nc2nc3ccccc3n2C(c2ccc(OCC(=O)O)cc2)N1 (stereo not given) | 3.7 µM | inactive | 6.8 ×10⁵ /M/s | inactive | inactive | –
3 | O=c1c(O)c(-c2ccc(O)c(O)c2)oc2cc(O)cc(O)c12 [QUERCETIN] | – | – | – | – | – | IC50 (Myeloperoxidase [7]): 1.27 µM
4 | Oc1ccccc1CN1CCCN(Cc2ccccc2O)C1 | 0.5 µM | 4.5% | 5.1 ×10⁶ /M/s | 62% | 11% | –
5 | O=C(NO)c1ccccc1O [SALICYLHYDROXAMIC ACID] | – | – | – | – | – | IC50 (Myeloperoxidase [1]): 3 µM; Kd (Myeloperoxidase [8]): 2 µM
6 | Cn1c(=O)[nH]c(=O)c2c1nc(NCCN)n2CCCOc1ccccc1 | 0.46 µM | 2.6% | 5.1 ×10⁶ /M/s | 11% | 6% | Activity [9]: 210 M⁻¹ s⁻¹; Ratio [10]: 24300
7 | C(=N\Nc1nc2ccccc2[nH]1)/c1c[nH]c2ccccc12 | 12 µM | inactive | 4.1 ×10⁷ /M/s | inactive | inactive | –
8 | CCC1=CCCc2cc(OC)ccc21 | – | – | – | – | – | IC50 (Myeloperoxidase [7]): 3 µM
9 | CS(=O)(=O)Nc1ccc([N+](=O)[O-])cc1Oc1ccccc1 [NIMESULIDE] | – | – | – | – | – | IC50 (Myeloperoxidase [1]): 2.1 µM
10 | COc1ccc2cc(CN(Cc3ccc(F)cc3)C(=S)NCCCN(C)C)c(O)nc2c1 | – | inactive | 9.36 ×10⁵ /M/s | inactive | inactive | –
11 | COc1ccc2cc(CN(Cc3ccc(F)cc3)C(=S)NCCCN(C)C)c(=O)[nH]c2c1 | 3.8 µM | – | – | – | – | –
12 | COc1cc(OC)c(C2N=C(N)Nc3nc4ccccc4n32)cc1OC (stereo not given) | 3.5 µM | inactive | 1.4 ×10⁶ /M/s | inactive | inactive | Activity [9]: 1.1 M⁻¹ s⁻¹; Ratio [10]: 1.27e+06
13 | COc1ccccc1N1CCN(C(=O)CSc2ncccc2-c2nc3ccccc3[nH]2)CC1 | 6.2 µM | inactive | – | inactive | inactive | –
14 | CC(C)CN1C(=O)C2=NC=NC2=NC1=S | – | – | – | – | – | IC50 (Myeloperoxidase [7]): 0.87 µM
15 | COc1cc(-c2nc(-c3ccccc3)c(-c3ccccc3)[nH]2)ccc1OCC(=O)O | 0.97 µM | inactive | 1.9 ×10⁶ /M/s | inactive | inactive | –
